Article PMC10538376 (Journal of the American Chemical Society, 2023)

Tests used:
[1] = system: methicillin-resistant S. aureus (MRSA); experiment: In vitro antimicrobial activity, MRSA; type: cell-based
[2] = system: VanA vancomycin-resistant E. faecium (VRE); experiment: In vitro antimicrobial activity, VanA VRE; type: cell-based; conditions: comparator named in value
[3] = system: methicillin-susceptible S. aureus (MSSA); experiment: In vitro antimicrobial activity, MSSA; type: cell-based
[4] = system: Ac2-L-Lys-D-Ala-D-Lac (33); experiment: Model ligand binding, ligand of vancomycin-resistant organisms
[5] = 30 vs CBP-vancomycin, 31 vs G3,CBP-vancomycin

Substance | fold improvement of activity relative to 1 [1] | activity compared with the corresponding vancomycin derivative, in words [1, 5] | antimicrobial activity against VanA VRE, result in words [2] | fold improvement of activity relative to 1 [3] | activity compared with the corresponding vancomycin derivative, in words [3, 5] | Ka, binding to model ligand 33 [4] | fold less effective binding of 33 than of Ac2-L-Lys-D-Ala-D-Ala [4]
CBP-tetrachlorovancomycin [Compound 30] | 50 fold | indistinguishable | comparable to CBP-vancomycin | 50 fold | indistinguishable | – | –
vancomycin [reference compound] | – | – | inactive | – | – | – | –
2e,6e-dichlorovancomycin [Compound 1] | – | – | inactive | – | – | < 470 M⁻¹ | 1000 fold
